From the NIST ThermoML archive (doi:10.1016/j.jct.2013.07.006)
± gives the expanded uncertainty stated by the source.

Assays:
[1] = molar heat capacity at constant pressure; conditions: 101.33 kPa, Vacuum adiabatic calorimetry
[2] = for molar entropy: 101.33 kPa, Vacuum adiabatic calorimetry

[Cl][Ru-2]([Cl])([Cl])([Cl])([Cl])[Cl].[NH4+].[NH4+] [diammonium hexachlororuthenate]
Conditions	molar entropy, [2] [J/K/mol]	molar heat capacity at constant pressure, [1] [J/K/mol]
5 K, Crystal 2	0.1106 ± 0.016	0.3475 ± 0.03
5.89 K, Crystal 2	–	0.5877 ± 0.027
7.09 K, Crystal 2	–	1.079 ± 0.031
8.03 K, Crystal 2	–	1.495 ± 0.038
9.46 K, Crystal 2	–	2.313 ± 0.048
10 K, Crystal 2	0.9395 ± 0.025	2.661 ± 0.058
10.8 K, Crystal 2	–	3.236 ± 0.061
11.99 K, Crystal 2	–	4.23 ± 0.075
13.2 K, Crystal 2	–	5.407 ± 0.091
14.5 K, Crystal 2	–	6.916 ± 0.11
15 K, Crystal 2	2.827 ± 0.058	7.358 ± 0.11
15.9 K, Crystal 2	–	8.589 ± 0.12
17.35 K, Crystal 2	–	10.37 ± 0.14
18.81 K, Crystal 2	–	12.31 ± 0.16
20 K, Crystal 2	5.82 ± 0.11	13.97 ± 0.17
20.31 K, Crystal 2	–	14.26 ± 0.17
21.81 K, Crystal 2	–	16.45 ± 0.2
23.4 K, Crystal 2	–	18.76 ± 0.22
25 K, Crystal 2	9.703 ± 0.17	21.24 ± 0.24
25.1 K, Crystal 2	–	21.38 ± 0.25
26.81 K, Crystal 2	–	24.18 ± 0.27
28.54 K, Crystal 2	–	26.91 ± 0.3
30 K, Crystal 2	14.44 ± 0.11	29.49 ± 0.14
30.27 K, Crystal 2	–	30.01 ± 0.14
32.02 K, Crystal 2	–	33.06 ± 0.15
33.91 K, Crystal 2	–	36.87 ± 0.16
35 K, Crystal 2	19.68 ± 0.12	38.87 ± 0.17
35.95 K, Crystal 2	–	40.66 ± 0.17
37.99 K, Crystal 2	–	44.72 ± 0.17
40 K, Crystal 2	25.51 ± 0.14	48.89 ± 0.19
40.05 K, Crystal 2	–	48.96 ± 0.19
42.12 K, Crystal 2	–	53.55 ± 0.2
44.2 K, Crystal 2	–	58.17 ± 0.21
45 K, Crystal 2	31.89 ± 0.17	59.91 ± 0.22
46.3 K, Crystal 2	–	62.77 ± 0.22
48.41 K, Crystal 2	–	67.6 ± 0.23
50 K, Crystal 2	38.8 ± 0.19	71.36 ± 0.24
50.8 K, Crystal 2	–	73.15 ± 0.24
53.47 K, Crystal 2	–	79.64 ± 0.26
55 K, Crystal 2	46.15 ± 0.22	83.48 ± 0.25
56.15 K, Crystal 2	–	86.22 ± 0.25
58.85 K, Crystal 2	–	92.96 ± 0.33
60 K, Crystal 2	53.94 ± 0.24	95.95 ± 0.33
61.55 K, Crystal 2	–	100.02 ± 0.33
64.27 K, Crystal 2	–	107.34 ± 0.33
65 K, Crystal 2	62.15 ± 0.27	109.25 ± 0.33
67.13 K, Crystal 2	–	114.99 ± 0.33
70 K, Crystal 2	70.73 ± 0.31	122.72 ± 0.33
70.82 K, Crystal 2	–	125.13 ± 0.33
75 K, Crystal 2	79.67 ± 0.34	136.44 ± 0.42
75.14 K, Crystal 2	–	136.94 ± 0.42
79.45 K, Crystal 2	–	149.83 ± 0.42
80 K, Crystal 2	88.97 ± 0.33	151.49 ± 0.42
83.79 K, Crystal 2	–	162.3 ± 0.42
85 K, Crystal 2	98.53 ± 0.42	165.79 ± 0.42
88.18 K, Crystal 2	–	174.11 ± 0.5
90 K, Crystal 2	108.42 ± 0.5	179.09 ± 0.5
92.84 K, Crystal 1	–	184.67 ± 0.5
92.84 K, Crystal 2	–	184.67 ± 0.5
95 K, Crystal 1	118.32 ± 0.5	184.75 ± 0.5
97.88 K, Crystal 1	–	182 ± 0.5
100 K, Crystal 1	127.71 ± 0.5	180.76 ± 0.42
103.06 K, Crystal 1	–	178.1 ± 0.42
105 K, Crystal 1	136.44 ± 0.58	179.26 ± 0.42
108.18 K, Crystal 1	–	182.59 ± 0.5
110 K, Crystal 1	144.92 ± 0.58	184.83 ± 0.5
113.23 K, Crystal 1	–	188.41 ± 0.5
115 K, Crystal 1	153.24 ± 0.58	190.49 ± 0.5
118.27 K, Crystal 1	–	194.14 ± 0.5
120 K, Crystal 1	161.47 ± 0.67	196.14 ± 0.5
123.32 K, Crystal 1	–	199.88 ± 0.5
125 K, Crystal 1	169.62 ± 0.67	201.54 ± 0.5
128.39 K, Crystal 1	–	205.12 ± 0.5
130 K, Crystal 1	177.6 ± 0.67	206.62 ± 0.5
133.46 K, Crystal 1	–	209.77 ± 0.5
135 K, Crystal 1	185.5 ± 0.67	211.35 ± 0.5
138.55 K, Crystal 1	–	214.6 ± 0.5
140 K, Crystal 1	193.31 ± 0.75	215.93 ± 0.5
143.8 K, Crystal 1	–	219.17 ± 0.5
145 K, Crystal 1	200.96 ± 0.75	220.17 ± 0.5
149.2 K, Crystal 1	–	223.33 ± 0.58
150 K, Crystal 1	208.44 ± 0.75	224.24 ± 0.58
154.62 K, Crystal 1	–	227.65 ± 0.58
160 K, Crystal 1	223.16 ± 0.83	231.48 ± 0.58
160.04 K, Crystal 1	–	231.39 ± 0.58
165.48 K, Crystal 1	–	235.13 ± 0.58
170 K, Crystal 1	237.38 ± 0.83	238.13 ± 0.58
170.9 K, Crystal 1	–	238.71 ± 0.58
176.33 K, Crystal 1	–	242.45 ± 0.58
180 K, Crystal 1	251.18 ± 0.91	244.78 ± 0.58
181.77 K, Crystal 1	–	245.78 ± 0.58
187.21 K, Crystal 1	–	249.27 ± 0.58
190 K, Crystal 1	264.65 ± 0.91	251.43 ± 0.58
192.66 K, Crystal 1	–	253.09 ± 0.58
198.19 K, Crystal 1	–	256.75 ± 0.58
200 K, Crystal 1	277.7 ± 1	257.83 ± 0.58
203.88 K, Crystal 1	–	260.16 ± 0.58
209.62 K, Crystal 1	–	263.57 ± 0.67
210 K, Crystal 1	290.43 ± 1	263.74 ± 0.67
215.39 K, Crystal 1	–	266.9 ± 0.67
220 K, Crystal 1	302.81 ± 1.1	269.06 ± 0.67
221.19 K, Crystal 1	–	269.39 ± 0.67
226.95 K, Crystal 1	–	272.55 ± 0.67
230 K, Crystal 1	314.87 ± 1.1	274.21 ± 0.67
232.71 K, Crystal 1	–	275.46 ± 0.67
238.48 K, Crystal 1	–	277.79 ± 0.67
240 K, Crystal 1	326.68 ± 1.2	278.37 ± 0.67
244.25 K, Crystal 1	–	279.78 ± 0.67
250 K, Crystal 1	338.07 ± 1.2	281.53 ± 0.67
250.07 K, Crystal 1	–	281.53 ± 0.67
256.04 K, Crystal 1	–	283.36 ± 0.67
260 K, Crystal 1	349.21 ± 1.2	284.44 ± 0.67
262.1 K, Crystal 1	–	285.02 ± 0.67
268.12 K, Crystal 1	–	286.68 ± 0.67
270 K, Crystal 1	359.93 ± 1.2	287.18 ± 0.67
274.34 K, Crystal 1	–	288.18 ± 0.67
280 K, Crystal 1	370.49 ± 1.2	290.18 ± 0.67
280.52 K, Crystal 1	–	290.51 ± 0.67
286.4 K, Crystal 1	–	292.01 ± 0.67
290 K, Crystal 1	380.72 ± 1.3	293.09 ± 0.67
292.34 K, Crystal 1	–	293.92 ± 0.67
298.15 K, Crystal 1	388.87 ± 1.3	295.66 ± 0.67
298.3 K, Crystal 1	–	295.25 ± 0.67
300 K, Crystal 1	390.7 ± 1.3	296.16 ± 0.67
304.21 K, Crystal 1	–	297.33 ± 0.67
310 K, Crystal 1	400.43 ± 1.3	298.91 ± 0.67
310.08 K, Crystal 1	–	298.91 ± 0.67
315.97 K, Crystal 1	–	300.4 ± 0.67
320 K, Crystal 1	409.99 ± 1.4	301.15 ± 0.67
321.87 K, Crystal 1	–	301.57 ± 0.67
325 K, Crystal 1	414.64 ± 1.4	302.23 ± 0.67

Conditions	Triple point temperature [K]
[2], Crystal 2, Adiabatic calorimetry	92.84 ± 0.09
